Results taken from patent US8343729B2, “Luciferin luminescent substrate of marine ostracod crustacean and method for production thereof” (National Institute of Advanced Industrial Science and …, priority 2005, dated 2013).

Tested on: Marine ostracod crustacean luciferase
Assay: Measurement of luminescence spectra of marine ostracod crustacean luciferins with luciferase
Assay type: biochemical
Conditions: luciferase 100 ng/mL, 50 mM Tris-HCl buffer (pH 7.5)

direction of shift of biological luminescence wavelength compared with native luciferin (11) | shift of luminescence maximum wavelength to the long wavelength side compared with native luciferin (spectrum integrated for 30 seconds) | SMILES
shifted to the long wavelength | – | CC(c1ccccc1)c1nc2c(CCCNC(=N)N)[nH]c(-c3c[nH]c4ccccc34)cn-2c1=O (centres unmarked) [Compound 32]
shifted to the long wavelength | – | CCC(c1ccccc1)c1nc2c(CCCNC(=N)N)[nH]c(-c3c[nH]c4ccccc34)cn-2c1=O (centres unmarked) [Compound 34]
shifted to the short wavelength | – | N=C(N)NCCCc1[nH]c(-c2c[nH]c3ccccc23)cn2c(=O)c(Cc3ccccc3)nc1-2 [Compound 30]
– | about 15 nm | CC[C@H](C)c1nc2c(/C=C/CNC(=N)N)[nH]c(-c3c[nH]c4ccccc34)cn-2c1=O [Compound 17]
shifted to the short wavelength | – | CCC(C)c1nc2c(CCCNC(=N)N)[nH]c(-c3ccc4ccccc4c3)cn-2c1=O (centres unmarked) [Compound 36]
